Read-outs that look alike come from different tables or passages of the source.
What was measured:
HT-29 [1] = assay: Inhibition of cells growth by colorimetric assay (SRB), HT-29; assay type: cell-based; details: SRB, 48 hours exposure; for HT-29 TGI / GI50: HT-29; for GI50: read-out: HT-29 GI50; for LC50 (concentration for 50% cell killing): read-out: HT-29 LC50, HT-29
How it was run: (§1)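 48 h SRB cytotoxicity assay; compound range 10–10^−8 μg/ml; seeding 5×10^3 cells/well, 18 h pre-attachment; OD 490 nm; GI, TGI, LC from triplicate means ± SD.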

A-549 [2] = assay: Inhibition of cells growth by colorimetric assay (SRB), A-549; assay type: cell-based; details: SRB, 48 hours exposure
How it was run: as §1

HT-29 [3] = assay: Inhibition of cell growth by counting cells, HT-29; assay type: cell-based, human; details: Homo sapiens, HT-29, 72 h; three days of incubation; read-out: IC50 (molar) HT-29
How it was run: (§2)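 Counts are net cells per well, averaged from duplicate wells, obtained by Coulter counting after trypsinization following 72 h of exposure at 37 °C. Seeding was 1×10^4 cells per well in EMEM/5% FCS with varied sample concentrations, alongside untreated growth controls. IC50 values derive from dose-response curves of % growth.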

A-549 [4] = assay: Inhibition of cell growth by counting cells, A-549; assay type: cell-based, human; details: Homo sapiens, A549, 72 h; three days of incubation; read-out: IC50 (molar) A-549
How it was run: as §2

PANC-1 = assay: Inhibition of cells growth by colorimetric assay (SRB), PANC-1; assay type: cell-based; details: PANC-1, SRB, 48 hours exposure
How it was run: as §1

HMEC1 = assay: Inhibition of cells growth by colorimetric assay (SRB), HMEC1; assay type: cell-based; details: HMEC-1, SRB, 48 hours exposure
How it was run: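 Cells in RPMI 1640 with 10% FBS were seeded at 5×10^3 per well, allowed 18 h to attach, then exposed to compound (10 to 10^−8 μg/ml, in DMSO/EtOH/PBS 0.5:0.5:99) for 48 h. After TCA fixation and SRB staining, bound dye was solubilized in Tris and OD read at 490 nm; GI, TGI and LC derived from triplicates.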

DU-145 = assay: Inhibition of cells growth by colorimetric assay (SRB), DU-145; assay type: cell-based; details: DU-145, SRB, 48 hours exposure
How it was run: as §1

K-562 = assay: Inhibition of cells growth by colorimetric assay (SRB), K-562; assay type: cell-based; details: K-562, SRB, 48 hours exposure
How it was run: as §1

SK-MEL-28 = assay: Inhibition of cells growth by colorimetric assay (SRB), SK-MEL-28; assay type: cell-based; details: MEL-28, SRB, 48 hours exposure
How it was run: as §1

SK-BR-3 = assay: Inhibition of cells growth by colorimetric assay (SRB), SK-BR-3; assay type: cell-based; details: SK-BR3, SRB, 48 hours exposure
How it was run: as §1

LoVo = assay: Inhibition of cells growth by colorimetric assay (SRB), LoVo; assay type: cell-based; details: LOVO, SRB, 48 hours exposure
How it was run: as §1

LoVo-Dox = assay: Inhibition of cells growth by colorimetric assay (SRB), LoVo-Dox; assay type: cell-based; details: LOVO-DOX, SRB, 48 hours exposure
How it was run: as §1

IGROV-ET = assay: Inhibition of cells growth by colorimetric assay (SRB), IGROV-ET; assay type: cell-based; details: IGROV-ET, SRB, 48 hours exposure
How it was run: as §1

LNCaP = assay: Inhibition of cells growth by colorimetric assay (SRB), LNCaP; assay type: cell-based; details: LNCAP, SRB, 48 hours exposure
How it was run: as §1

SK-OV-3 = assay: Inhibition of cells growth by colorimetric assay (SRB), SK-OV-3; assay type: cell-based; details: SK-OV3, SRB, 48 hours exposure
How it was run: as §1

IGROV-1 = assay: Inhibition of cells growth by colorimetric assay (SRB), IGROV-1; assay type: cell-based; details: IGROV, SRB, 48 hours exposure
How it was run: as §1

[5] = Homo sapiens, A549, 48 h, A-549, read-out: A-549 GI50
[6] = Homo sapiens, A549, 48 h, read-out: A-549 LC50, A-549

Excerpt for Heart: (§3) Toxicity was asssessed by the methods reported in Toxicology in Vitro, 15 (2001) 571-577, J. Luber Narod et al.: “Evaluation of the use of in vitro methodolodies as tools for screening new compounds for potential in vivo toxicity”.
Excerpt for Kidney: as §3
Excerpt for Liver: as §3
Excerpt for Myelo: as §3
Excerpt for Skeletal: as §3

C=COC(=O)Oc1cc2c(cc1OC)[C@@]1(CS[C@@H]3c4c(OC(C)=O)c(C)c5c(c4[C@H](COC1=O)N1C3[C@H]3c4c(cc(C)c(OC)c4OC(=O)OC=C)C[C@@H]([C@@H]1O)N3C)OCO5)NCC2 (stereo partly shown) [Compound 92]
HT-29 TGI (HT-29 [1]): 1.11E-09 | GI50 (HT-29 [1]; Homo sapiens, HT-29, 48 h): 1.11 nM | LC50 (concentration for 50% cell killing) (HT-29 [1]; Homo sapiens, HT-29, 48 h): 55.5 nM | Toxicity Data Myelo (Myelo): 1.92E-08 | Toxicity Data Liver (Liver): 2.30E-08 | Toxicity Data Heart (Heart): 2.80E-08 | A-549 TGI (A-549 [2]; A-549): 7.77E-09 | GI50 (A-549 [2]; [5]): 3.33 nM | LC50 (concentration for 50% cell killing) (A-549 [2]; [6]): 33.3 nM | Toxicity Data Skeletal (Skeletal): 1.21E-08 | Toxicity Data Kidney (Kidney): 1.35E-08

COc1cc2c(cc1OC(=O)[C@H](C)NC(=O)OC(C)(C)C)CCN[C@]21CS[C@@H]2c3c(OC(C)=O)c(C)c4c(c3[C@H](COC1=O)N1C2[C@H]2c3c(cc(C)c(OC)c3O)C[C@@H]([C@@H]1O)N2C)OCO4 (stereo partly shown) [Compound 79]
IC50 (HT-29 [3]): 0.107 nM | Toxicity Data Myelo (Myelo): 1.35E-08 | Toxicity Data Liver (Liver): 2.28E-08 | Toxicity Data Heart (Heart): 3.46E-08 | Toxicity Data Skeletal (Skeletal): 2.75E-09 | IC50 (A-549 [4]): 0.107 nM | Toxicity Data Kidney (Kidney): 1.74E-08

CCCCCCCC(=O)Oc1cc2c(cc1OC)[C@@]1(CS[C@@H]3c4c(OC(C)=O)c(C)c5c(c4[C@H](COC1=O)N1C3[C@@H]3N[C@@H](Cc4cc(C)c(OC)c(O)c43)[C@@H]1O)OCO5)NCC2 (stereo partly shown) [Compound 213]
IC50 (HT-29 [3]): 0.114 nM | Toxicity Data Myelo (Myelo): 2.70E-08 | Toxicity Data Liver (Liver): 3.93E-08 | Toxicity Data Heart (Heart): 1.82E-07 | Toxicity Data Skeletal (Skeletal): 1.72E-07 | IC50 (A-549 [4]): 0.114 nM | Toxicity Data Kidney (Kidney): 1.48E-08

C=CCOC(=O)Oc1c(C)c2c(c3c1[C@H]1SC[C@]4(NCCc5cc(O)c(OC)cc54)C(=O)OC[C@@H]3N3C1[C@H]1c4c(cc(C)c(OC)c4O)C[C@@H]([C@@H]3O)N1C)OCO2 (stereo partly shown) [Compound 165]
HT-29 TGI (HT-29 [1]): 3.73E-10 | GI50 (HT-29 [1]; Homo sapiens, HT-29, 48 h): 0.249 nM | LC50 (concentration for 50% cell killing) (HT-29 [1]; Homo sapiens, HT-29, 48 h): 0.995 nM | Toxicity Data Myelo (Myelo): 2.87E-08 | Toxicity Data Liver (Liver): 1.68E-08 | Toxicity Data Heart (Heart): 2.79E-08 | A-549 TGI (A-549 [2]; A-549): 3.73E-10 | GI50 (A-549 [2]; [5]): 0.124 nM | LC50 (concentration for 50% cell killing) (A-549 [2]; [6]): 1.24 nM | Toxicity Data Skeletal (Skeletal): 1.47E-08 | Toxicity Data Kidney (Kidney): 1.89E-08

COc1cc2c(cc1OC(=O)Cc1cc(=O)oc3cc(N(C)C)ccc13)CCN[C@]21CS[C@@H]2c3c(OC(C)=O)c(C)c4c(c3[C@H](COC1=O)N1C2[C@H]2c3c(cc(C)c(OC)c3OC(=O)Cc3cc(=O)oc5cc(N(C)C)ccc35)C[C@@H]([C@@H]1O)N2C)OCO4 (stereo partly shown) [Compound 78]
PANC-1 TGI (PANC-1): 3.24E-08 | GI50 (PANC-1; read-out: PANC-1 GI50): 5.42 nM | LC50 (concentration for 50% net cell kill) (PANC-1; read-out: PANC-1 LC50): 4900 nM | HMEC-1 TGI (HMEC1): 2.35E-07 | GI50 (HMEC1; read-out: HMEC-1 GI50): 28.3 nM | DU-145 TGI (DU-145): 8.52E-09 | GI50 (DU-145; read-out: DU-145 GI50): 3.21 nM | K-562 TGI (K-562): 2.56E-09 | GI50 (K-562; read-out: K-562 GI50): 1.24 nM | LC50 (50% cell killing) (K-562; read-out: K-562 LC50): 7.5 nM | MEL-28 TGI (SK-MEL-28): 4.48E-09 | GI50 (SK-MEL-28; read-out: MEL-28 GI50): 2.15 nM | CC50 (SK-MEL-28; read-out: MEL-28 LC50): 16.9 nM | HT-29 TGI (HT-29 [1]): 1.10E-07 | GI50 (HT-29 [1]): 17.1 nM | SK-BR3 TGI (SK-BR-3): 1.70E-08 | GI50 (SK-BR-3; read-out: SK-BR3 GI50): 4.31 nM | CC50 (SK-BR-3; read-out: SK-BR3 LC50): 63.3 nM | LOVO TGI (LoVo): 2.83E-08 | GI50 (LoVo; read-out: LOVO GI50): 10.7 nM | LC50 (concentration for 50% cell killing) (LoVo; read-out: LOVO LC50): 74.3 nM | LOVO-DOX TGI (LoVo-Dox): 8.77E-07 | GI50 (LoVo-Dox; read-out: LOVO-DOX GI50): 88.5 nM | Toxicity Data Liver (Liver): 5.88E-08 | Toxicity Data Heart (Heart): 8.19E-07 | TGI A-549 (A-549 [2]; A-549): 1.99E-08 | GI50 (A-549 [2]; A-549, read-out: GI50 A-549): 9.59 nM | LC50 (concentration for 50% cell killing) (A-549 [2]; read-out: A-549 LC50, A-549): 41.1 nM | Toxicity Data Skeletal (Skeletal): 1.96E-08 | IGROV-ET TGI (IGROV-ET): 7.42E-07 | GI50 (IGROV-ET; read-out: IGROV-ET GI50): 114 nM | LNCAP TGI (LNCaP): 4.05E-09 | GI50 (LNCaP; read-out: LNCAP GI50): 2.74 nM | CC50 (LNCaP; read-out: LNCAP LC50): 5.99 nM | SK-OV3 TGI (SK-OV-3): 6.27E-08 | GI50 (SK-OV-3; read-out: SK-OV3 GI50): 3.79 nM | Toxicity Data Kidney (Kidney): 2.59E-07 | IGROV TGI (IGROV-1): 6.27E-09 | GI50 (IGROV-1; read-out: IGROV GI50): 2.38 nM | CC50 (IGROV-1; read-out: IGROV LC50): 53.9 nM
